Reference: ChEMBL document CHEMBL5365512, “Hetero-tricyclic Compounds as KRAS Inhibitors for Treating Cancer” (ACS Med Chem Lett, 2023)
pIC50: −log10 of the molar value. Values belong to the compound of their own block, whether it stands above or below them.

Experiments:
[1] = biological target: GTPase KRas (Homo sapiens, UniProt P01116, G12V); experiment: Inhibition of KRAS G12V mutant (unknown origin) assessed as inhibition of SOS1 mediated nucleotide exchange of bodipy-GDP for GppNHp incubated for 3 hrs by fluorescence based analysis
[2] = biological target: T1, GTPase KRas (Homo sapiens, UniProt P01116, G12D); experiment: Inhibition of KRAS G12D mutant in human HPAF-II cells assessed as reduction in ERK phosphorylation by Western blot analysis; format: cell-based
[3] = biological target: T1, GTPase KRas; experiment: Inhibition of KRAS G12D mutant (unknown origin) assessed as inhibition of SOS1 mediated nucleotide exchange of bodipy-GDP for GppNHp incubated for 4 hrs by fluorescence based analysis

T1 sequence (P01116 whole entry G12D): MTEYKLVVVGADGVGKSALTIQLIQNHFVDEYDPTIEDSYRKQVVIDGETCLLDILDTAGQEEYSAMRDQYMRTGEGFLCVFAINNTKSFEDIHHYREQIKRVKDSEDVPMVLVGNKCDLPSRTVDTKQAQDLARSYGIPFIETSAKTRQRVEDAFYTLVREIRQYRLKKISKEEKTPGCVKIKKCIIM
GTPase KRas (Homo sapiens, UniProt P01116, G12V), sequence (P01116 whole entry G12V): as the sequence (P01116 whole entry G12D) above, with D12V counted along it

SMILES: Cc1cc2c(nc(O[C@@H](C)[C@H]3CCCN3C)c3c(=O)ccn([C@@H]4[C@@H]5CN[C@H]4C5)c32)c(F)c1-c1cccc2c1C(C#N)CCC2 (some centres not stated)
pIC50 [1]: ≥ 7.00
pIC50 [2]: ≥ 7.00
pIC50 [3]: ≥ 7.00

SMILES: C[C@H](Oc1nc2c(F)c(-c3c[nH]c4ccccc34)c(CCC#N)cc2c2c1NC(=O)CN2C1C2CNC1C2)[C@@H]1CCCN1C (some centres not stated)
pIC50 [1]: ≥ 7.00
pIC50 [2]: ≥ 7.00
pIC50 [3]: ≥ 7.00

SMILES: C[C@H](Oc1nc2c(F)c(-c3cccc(Cl)c3Cl)c(CCC#N)cc2c2c1c(=O)c(N1CCCC1=O)cn2[C@@H]1[C@@H]2CN[C@H]1C2)[C@H]1CCCN1C
pIC50 [1]: ≥ 7.00
pIC50 [3]: ≥ 7.00

Now from value to compound:

pIC50 [1]: ≥ 7.00
pIC50 [2]: ≥ 7.00
pIC50 [3]: ≥ 7.00
SMILES: C[C@H](Oc1nc2c(F)c(-c3cc(O)cc4ccc(F)cc34)c(CCC#N)cc2c2c1NC(=O)CN2C1C2CNC1C2)[C@@H]1CCCN1C (some centres not stated)

pIC50 [1]: ≥ 7.00
pIC50 [2]: ≥ 7.00
pIC50 [3]: ≥ 7.00
SMILES: C[C@H](Oc1nc2c(F)c(-c3cccc4ccc(F)cc34)c(CCC#N)cc2c2c1NC(=O)CN2C1C2CNC1C2)[C@@H]1CCCN1C (some centres not stated)

pIC50 [1]: ≥ 7.00
pIC50 [2]: ≥ 7.00
pIC50 [3]: ≥ 7.00
SMILES: C[C@@H](Oc1nc2c(F)c(-c3cc(O)cc4ccccc34)c(CCC#N)cc2c2c1CCCN2C1C2CNC1C2)[C@H]1CCCN1C (some centres not stated)
